Test results as given in PMC8333425, “Discovery of a dual Ras and ARF6 inhibitor from a GPCR endocytosis screen” (Nature Communications, 2021).

Columns and labels:
Experiment in all cases: KINOMEscan kinase binding assay
[1] = target: T1, 384 kinases from the human genome (Homo sapiens, UniProt Q9UQM7); conditions: kinase CAMK2A (Entrez CAMK2A)
T1 construct: purchased Eurofin/DiscoverX
Outline: (§1)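 A panel of 384 human kinases was profiled by KINOMEscan binding in the presence of 10 µM compound. Kinase–ligand binding was given as percent of DMSO control, averaged from duplicates in a single run, with an S(10) selectivity score.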

[2] = target: T2, 384 kinases from the human genome (Homo sapiens, UniProt P53779); conditions: kinase JNK3 (Entrez MAPK10)
T2 construct: purchased Eurofin/DiscoverX
Outline: as §1

[3] = target: T3, 384 kinases from the human genome (Homo sapiens, UniProt Q15831); conditions: kinase LKB1 (Entrez STK11)
T3 construct: purchased Eurofin/DiscoverX
Outline: as §1

[4] = target: T4, 384 kinases from the human genome (Homo sapiens, UniProt Q15375); conditions: kinase EPHA7 (Entrez EPHA7)
T4 construct: purchased Eurofin/DiscoverX
Outline: as §1

[5] = target: T5, 384 kinases from the human genome (Homo sapiens, UniProt O14733); conditions: kinase MKK7 (Entrez MAP2K7)
T5 construct: purchased Eurofin/DiscoverX
Outline: as §1

[6] = target: T6, 384 kinases from the human genome (Homo sapiens, UniProt Q8IU85); conditions: kinase CAMK1D (Entrez CAMK1D)
T6 construct: purchased Eurofin/DiscoverX
Outline: as §1

[7] = target: T7, 384 kinases from the human genome (Homo sapiens, UniProt Q9BX84); conditions: kinase TRPM6 (Entrez TRPM6)
T7 construct: purchased Eurofin/DiscoverX
Outline: as §1

[8] = target: T8, 384 kinases from the human genome (Homo sapiens, UniProt Q9Y2I7); conditions: kinase PIKFYVE (Entrez PIKFYVE)
T8 construct: purchased Eurofin/DiscoverX
Outline: as §1

[9] = target: T9, 384 kinases from the human genome (Homo sapiens, UniProt P36888)
T9 construct: purchased Eurofin/DiscoverX
T9 sequence (P36888 27-993): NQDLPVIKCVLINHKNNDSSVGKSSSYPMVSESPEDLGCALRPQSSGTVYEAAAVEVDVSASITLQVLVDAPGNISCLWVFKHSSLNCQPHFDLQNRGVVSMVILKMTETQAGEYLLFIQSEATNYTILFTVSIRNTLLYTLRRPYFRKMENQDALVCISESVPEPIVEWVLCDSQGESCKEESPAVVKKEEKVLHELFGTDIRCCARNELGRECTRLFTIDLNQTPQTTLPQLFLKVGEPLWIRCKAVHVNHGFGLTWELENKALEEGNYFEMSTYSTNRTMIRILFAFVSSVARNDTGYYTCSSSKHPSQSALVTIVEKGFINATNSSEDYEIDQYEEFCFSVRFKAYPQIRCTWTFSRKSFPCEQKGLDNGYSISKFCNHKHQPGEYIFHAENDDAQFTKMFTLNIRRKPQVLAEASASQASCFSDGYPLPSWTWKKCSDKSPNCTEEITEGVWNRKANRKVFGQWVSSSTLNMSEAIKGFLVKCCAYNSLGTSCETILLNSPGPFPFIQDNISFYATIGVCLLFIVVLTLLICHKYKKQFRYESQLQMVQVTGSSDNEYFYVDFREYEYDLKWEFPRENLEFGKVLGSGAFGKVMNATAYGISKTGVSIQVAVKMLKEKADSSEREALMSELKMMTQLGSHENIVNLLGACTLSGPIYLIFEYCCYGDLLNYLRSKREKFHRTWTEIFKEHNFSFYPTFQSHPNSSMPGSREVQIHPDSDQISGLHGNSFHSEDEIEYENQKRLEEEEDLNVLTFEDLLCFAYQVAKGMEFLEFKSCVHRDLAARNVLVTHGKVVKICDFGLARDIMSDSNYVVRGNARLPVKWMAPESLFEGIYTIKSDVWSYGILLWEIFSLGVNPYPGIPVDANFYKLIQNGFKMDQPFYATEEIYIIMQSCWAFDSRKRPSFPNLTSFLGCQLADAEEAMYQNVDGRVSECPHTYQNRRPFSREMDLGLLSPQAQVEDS
Outline: as §1

[10] = target: T10, 384 kinases from the human genome (Homo sapiens, UniProt O95382); conditions: kinase ASK2 (Entrez MAP3K6)
T10 construct: purchased Eurofin/DiscoverX
Outline: as §1

[11] = target: T11, 384 kinases from the human genome (Homo sapiens, UniProt Q99759); conditions: kinase MAP3K3 (Entrez MAP3K3)
T11 construct: purchased Eurofin/DiscoverX
Outline: as §1

[12] = target: T12, 384 kinases from the human genome (Homo sapiens, UniProt P08922); conditions: kinase ROS1 (Entrez ROS1)
T12 construct: purchased Eurofin/DiscoverX
Outline: as §1

[13] = target: T13, 384 kinases from the human genome (Homo sapiens, UniProt P16234); conditions: kinase PDGFRA (Entrez PDGFRA)
T13 construct: purchased Eurofin/DiscoverX
Outline: as §1

[14] = target: T14, 384 kinases from the human genome (Homo sapiens, UniProt Q9HBH9); conditions: kinase MKNK2 (Entrez MKNK2)
T14 construct: purchased Eurofin/DiscoverX
Outline: as §1

[15] = target: T15, 384 kinases from the human genome (Homo sapiens, UniProt Q15746); conditions: kinase MYLK (Entrez MYLK)
T15 construct: purchased Eurofin/DiscoverX
Outline: as §1

[16] = target: T16, 384 kinases from the human genome (Homo sapiens, UniProt Q02156); conditions: kinase PRKCE (Entrez PRKCE)
T16 construct: purchased Eurofin/DiscoverX
Outline: as §1

T14 sequence (Q9HBH9 whole entry): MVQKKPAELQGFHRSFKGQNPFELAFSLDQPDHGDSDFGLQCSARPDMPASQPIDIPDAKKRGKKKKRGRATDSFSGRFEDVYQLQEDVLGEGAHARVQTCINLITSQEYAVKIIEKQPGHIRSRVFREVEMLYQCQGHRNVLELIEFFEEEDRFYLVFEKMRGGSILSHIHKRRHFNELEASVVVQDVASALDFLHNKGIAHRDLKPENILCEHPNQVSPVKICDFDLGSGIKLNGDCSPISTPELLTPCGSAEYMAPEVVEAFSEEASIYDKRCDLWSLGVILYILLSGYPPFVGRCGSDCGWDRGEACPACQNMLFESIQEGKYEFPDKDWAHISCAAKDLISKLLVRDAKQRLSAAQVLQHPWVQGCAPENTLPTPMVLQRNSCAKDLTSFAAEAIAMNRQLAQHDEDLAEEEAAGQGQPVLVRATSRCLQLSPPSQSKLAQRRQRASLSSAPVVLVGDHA
T12 sequence (P08922 28-2347): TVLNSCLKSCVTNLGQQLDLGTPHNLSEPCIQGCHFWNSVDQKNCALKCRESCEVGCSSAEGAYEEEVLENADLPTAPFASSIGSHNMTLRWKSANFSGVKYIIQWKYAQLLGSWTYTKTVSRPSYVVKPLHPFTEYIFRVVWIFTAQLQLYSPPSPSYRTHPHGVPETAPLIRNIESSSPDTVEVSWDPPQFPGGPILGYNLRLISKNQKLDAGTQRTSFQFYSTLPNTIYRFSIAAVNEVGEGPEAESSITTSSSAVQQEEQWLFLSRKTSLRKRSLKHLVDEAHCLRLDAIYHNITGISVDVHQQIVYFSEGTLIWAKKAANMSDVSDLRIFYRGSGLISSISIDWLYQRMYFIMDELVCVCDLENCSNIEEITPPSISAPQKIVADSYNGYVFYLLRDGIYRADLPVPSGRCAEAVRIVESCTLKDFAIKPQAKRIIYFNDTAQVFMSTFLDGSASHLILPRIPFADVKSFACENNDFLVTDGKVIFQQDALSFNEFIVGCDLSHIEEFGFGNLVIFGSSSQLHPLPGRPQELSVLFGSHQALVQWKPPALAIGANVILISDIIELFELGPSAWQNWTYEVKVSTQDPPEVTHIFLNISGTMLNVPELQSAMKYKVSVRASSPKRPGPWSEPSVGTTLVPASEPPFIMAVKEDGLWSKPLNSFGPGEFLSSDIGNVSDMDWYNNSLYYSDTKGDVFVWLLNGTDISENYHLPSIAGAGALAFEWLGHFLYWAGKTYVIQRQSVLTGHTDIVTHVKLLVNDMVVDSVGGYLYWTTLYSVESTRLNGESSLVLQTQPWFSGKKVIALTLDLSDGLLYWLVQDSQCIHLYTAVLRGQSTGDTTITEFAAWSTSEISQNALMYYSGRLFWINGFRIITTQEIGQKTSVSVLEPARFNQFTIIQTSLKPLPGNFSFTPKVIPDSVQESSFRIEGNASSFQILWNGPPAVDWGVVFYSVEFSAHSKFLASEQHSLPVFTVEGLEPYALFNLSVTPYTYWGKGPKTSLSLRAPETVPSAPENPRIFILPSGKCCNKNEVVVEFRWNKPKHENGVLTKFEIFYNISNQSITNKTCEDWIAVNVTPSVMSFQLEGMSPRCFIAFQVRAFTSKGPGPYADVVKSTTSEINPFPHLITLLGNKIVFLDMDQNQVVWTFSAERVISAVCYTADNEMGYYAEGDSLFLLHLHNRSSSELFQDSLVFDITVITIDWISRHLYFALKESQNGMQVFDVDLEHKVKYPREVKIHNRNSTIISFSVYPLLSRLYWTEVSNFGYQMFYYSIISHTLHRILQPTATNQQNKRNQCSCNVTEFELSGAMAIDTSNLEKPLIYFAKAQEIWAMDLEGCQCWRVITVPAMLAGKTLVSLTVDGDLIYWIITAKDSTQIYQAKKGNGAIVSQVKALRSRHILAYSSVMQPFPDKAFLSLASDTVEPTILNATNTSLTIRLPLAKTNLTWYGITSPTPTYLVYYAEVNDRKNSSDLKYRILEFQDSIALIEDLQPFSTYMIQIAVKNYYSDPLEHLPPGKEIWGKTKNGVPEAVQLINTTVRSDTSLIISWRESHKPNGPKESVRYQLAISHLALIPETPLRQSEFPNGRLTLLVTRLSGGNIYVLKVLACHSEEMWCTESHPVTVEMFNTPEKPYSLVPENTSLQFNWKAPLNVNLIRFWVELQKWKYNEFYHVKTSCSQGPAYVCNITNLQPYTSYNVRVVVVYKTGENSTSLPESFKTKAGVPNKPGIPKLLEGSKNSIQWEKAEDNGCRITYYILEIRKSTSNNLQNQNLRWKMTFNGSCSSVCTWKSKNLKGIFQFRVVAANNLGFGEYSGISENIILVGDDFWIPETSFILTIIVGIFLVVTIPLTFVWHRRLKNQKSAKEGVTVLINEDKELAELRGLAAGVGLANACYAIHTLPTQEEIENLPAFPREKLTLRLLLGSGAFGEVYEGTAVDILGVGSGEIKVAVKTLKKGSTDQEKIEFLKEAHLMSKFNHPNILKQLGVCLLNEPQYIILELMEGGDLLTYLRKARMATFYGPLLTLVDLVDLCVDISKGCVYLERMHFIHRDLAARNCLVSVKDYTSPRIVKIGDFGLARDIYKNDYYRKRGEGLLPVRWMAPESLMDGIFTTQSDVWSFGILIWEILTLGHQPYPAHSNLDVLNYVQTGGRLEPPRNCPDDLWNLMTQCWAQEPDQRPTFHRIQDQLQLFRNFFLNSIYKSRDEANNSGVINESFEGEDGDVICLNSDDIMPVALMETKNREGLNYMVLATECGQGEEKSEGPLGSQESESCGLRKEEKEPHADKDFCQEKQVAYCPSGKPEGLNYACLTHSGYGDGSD
T5 sequence (O14733 whole entry): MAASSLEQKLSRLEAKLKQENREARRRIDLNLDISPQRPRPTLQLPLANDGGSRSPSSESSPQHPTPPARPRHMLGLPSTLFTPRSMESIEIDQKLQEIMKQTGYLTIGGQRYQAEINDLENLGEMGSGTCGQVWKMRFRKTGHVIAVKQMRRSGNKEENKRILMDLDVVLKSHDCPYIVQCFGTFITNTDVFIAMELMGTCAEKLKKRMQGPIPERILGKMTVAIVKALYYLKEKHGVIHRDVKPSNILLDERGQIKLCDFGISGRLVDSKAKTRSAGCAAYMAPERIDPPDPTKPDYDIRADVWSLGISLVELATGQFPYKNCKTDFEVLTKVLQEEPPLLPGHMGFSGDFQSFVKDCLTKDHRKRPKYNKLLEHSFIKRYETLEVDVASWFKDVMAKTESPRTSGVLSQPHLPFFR
T1 sequence (Q9UQM7 whole entry): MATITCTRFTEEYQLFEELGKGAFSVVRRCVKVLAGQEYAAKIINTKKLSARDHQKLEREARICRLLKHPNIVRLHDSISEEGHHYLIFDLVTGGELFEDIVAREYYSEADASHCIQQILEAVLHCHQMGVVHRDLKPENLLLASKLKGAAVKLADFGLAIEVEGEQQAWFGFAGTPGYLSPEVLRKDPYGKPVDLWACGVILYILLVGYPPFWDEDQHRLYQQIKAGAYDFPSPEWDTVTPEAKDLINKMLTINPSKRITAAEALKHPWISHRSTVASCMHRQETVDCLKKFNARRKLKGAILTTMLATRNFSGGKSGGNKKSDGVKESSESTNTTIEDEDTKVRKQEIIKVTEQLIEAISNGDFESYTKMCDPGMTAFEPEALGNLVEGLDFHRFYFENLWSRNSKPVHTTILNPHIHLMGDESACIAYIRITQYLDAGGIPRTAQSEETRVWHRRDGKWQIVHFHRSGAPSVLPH
T16 sequence (Q02156 whole entry): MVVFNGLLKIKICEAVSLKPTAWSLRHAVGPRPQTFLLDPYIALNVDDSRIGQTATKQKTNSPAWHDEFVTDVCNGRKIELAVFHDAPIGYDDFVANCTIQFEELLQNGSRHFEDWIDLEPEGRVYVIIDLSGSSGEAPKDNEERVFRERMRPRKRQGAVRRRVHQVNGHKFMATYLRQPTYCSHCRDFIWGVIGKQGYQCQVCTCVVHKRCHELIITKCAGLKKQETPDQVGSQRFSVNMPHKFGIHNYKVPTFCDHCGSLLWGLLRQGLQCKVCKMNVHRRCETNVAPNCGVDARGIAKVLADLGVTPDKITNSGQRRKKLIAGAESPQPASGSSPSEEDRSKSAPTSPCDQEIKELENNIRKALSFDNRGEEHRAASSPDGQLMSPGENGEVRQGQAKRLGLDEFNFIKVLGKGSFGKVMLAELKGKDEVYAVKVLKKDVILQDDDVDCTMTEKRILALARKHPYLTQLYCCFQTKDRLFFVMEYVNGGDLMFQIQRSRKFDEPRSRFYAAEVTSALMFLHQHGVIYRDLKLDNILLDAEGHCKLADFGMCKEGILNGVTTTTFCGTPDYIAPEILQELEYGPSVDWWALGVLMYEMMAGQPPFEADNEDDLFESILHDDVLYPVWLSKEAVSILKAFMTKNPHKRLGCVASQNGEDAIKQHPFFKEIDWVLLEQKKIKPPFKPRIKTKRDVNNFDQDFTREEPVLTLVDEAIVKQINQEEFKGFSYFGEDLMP
T11 sequence (Q99759 whole entry): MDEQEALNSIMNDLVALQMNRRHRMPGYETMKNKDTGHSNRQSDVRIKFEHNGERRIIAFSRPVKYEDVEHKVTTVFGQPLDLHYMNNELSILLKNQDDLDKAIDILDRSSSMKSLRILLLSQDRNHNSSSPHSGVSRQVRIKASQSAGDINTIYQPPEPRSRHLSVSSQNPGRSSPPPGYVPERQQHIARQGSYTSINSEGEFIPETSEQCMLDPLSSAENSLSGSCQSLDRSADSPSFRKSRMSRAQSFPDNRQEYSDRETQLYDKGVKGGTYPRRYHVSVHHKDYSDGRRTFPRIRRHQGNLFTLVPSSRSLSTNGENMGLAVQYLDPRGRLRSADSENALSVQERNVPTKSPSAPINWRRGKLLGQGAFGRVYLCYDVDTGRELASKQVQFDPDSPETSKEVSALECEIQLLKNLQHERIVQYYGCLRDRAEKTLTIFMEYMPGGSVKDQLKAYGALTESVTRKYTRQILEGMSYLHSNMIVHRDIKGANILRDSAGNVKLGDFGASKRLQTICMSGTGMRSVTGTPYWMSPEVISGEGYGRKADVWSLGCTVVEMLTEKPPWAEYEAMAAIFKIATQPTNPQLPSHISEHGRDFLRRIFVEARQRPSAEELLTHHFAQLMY

With `CC(C)C(=O)N1CCN(c2ccc(NC(=O)c3cc4ccccc4o3)cc2Cl)CC1` [Compound 21] the “Percent Control” value [1] was 100%, the “Percent Control” value [2] was 75% and the “Percent Control” value [3] was 67%. The “Percent Control” value [4] was 90%, the “Percent Control” value [5] was 93% and the “Percent Control” value [6] was 94%. For the same molecule, the “Percent Control” value [7] was 81%, the “Percent Control” value [8] was 61% and the “FLT3 binding to its ligand affected” value ([9]; 10 µM of 21, compared to DMSO (100%)) was “more than 90%”. The “Percent Control” value ([9]; kinase FLT3 (Entrez FLT3)) was 6.6%, the “Percent Control” value ([9]; kinase FLT3-autoinhibited (Entrez FLT3)) was 71% and the “Percent Control” value [10] was 100%. For the same molecule, the “Percent Control” value [11] was 75%, the “Percent Control” value [12] was 94% and the “Percent Control” value [13] was 72%. For the same molecule, the “Percent Control” value [14] was 97%, the “Percent Control” value [15] was 93% and the “Percent Control” value [16] was 99%.
